Assay results: patent US20260263443A1, “COMPOUND FOR TREATMENT OF FEMALE SEXUAL DYSFUNCTION” (Initiator Pharma A/S, priority 2022, published 2026)
Structures can show the parent of a compound that is named as a salt. Where two headings read alike, the source gives them in different places.

Assays:
[1] = system: female Sprague Daley rats; assay: Laser Doppler measurement of clitoral blood flow in anaesthetized female rats; format: in vivo, rat
Protocol: (§1) Animals: The experimental setup was run in two different sets of measurement procedures to avoid a variation given by each other. The first set of experiments was run in control female rats, and the second set was run in a depressed model called Flint Sensitive Line (FSL), which shares molecular similarities to major depressive patients.
(§2) Anesthesia and general surgical procedure: The rats were injected intraperitoneally with pentobarbital 50 mg/Kg. After 10 min in dark conditions a pinch of the interdigital area confirmed unresponsive of reflexes and the animal was prepared on a table, where legs were semi-extended by tape to fix the animal. The areas of interest (abdomen-inguinal and neck) were shaved and clean-disinfected with water and ethanol. After each study was completed, the animal was sacrificed by an overdose of pentobarbital, and the Atlanto-occipital joint was severed to guarantee a painless procedure for the animal.
Measurements of clitoral blood flow and genital temperature: A suture Nylon 4-0 with a needle was used to extend the urethra opening and expose the mucosa. […] A calibrated laser Doppler flow probe (VP1T, Moor instruments-UK) was used to measure on the front-side of the clitoris, which was connected to the laser Doppler flow monitor; MOORVMS-LDF2 (Moor instruments-UK). A laser Doppler probe was positioned and fixed to a base and a crocodile clamp in order to avoid any movement. The tip of the calibrated probe was immersed in a water-based gel in the exposed area of the urethra-clitoris (FIG. 1B).
A calibrated laser Doppler flow probe (VP1T, Moor instruments-UK) was used to measure on the front-side of the clitoris, which was connected to the laser Doppler flow monitor; MOORVMS-LDF2 (Moor instruments-UK). […] The infusion protocol was performed in sets of 1 min infusion +4 min of further recording of blood flow changes recorded by the system. Electrical field stimulation of the cavernous nerve to the clitoris was utilized as a positive control as described below.
Measurements of clitoral blood flow following electrical stimulation of the cavernous nerve to the clitoris: Through a lower abdominal incision, the cavernous nerve to clitoris was isolated, and electrical stimulation was performed with a slender bipolar platinum electrode, which was connected to a S48 stimulator (Grass Instrument Co., Boston, MA, U.S.A.). To investigate whether stimulation of the nerve leads to hemodynamic changes in the clitorial tissue, the nerve was stimulated as previously described for male rats, with parameters eliciting the maximum amplitude of response (square wave pulses of 6 Volts, 10 Hz, 1 ms for 30 s), and flow was measured with laser Doppler. Clitoral blood flow was measured via laser Doppler as aforementioned.

[2] = biological target: T1, noradrenaline (NA) reuptake in synaptosomes (Rattus norvegicus, UniProt Q63380); conditions: reported in U.S. Pat. No. 9,133,184 B1; cited from earlier work
T1 construct: in synaptosomes as described in WO 97/16451; from tissue
T1 sequence (Q63380 1-617): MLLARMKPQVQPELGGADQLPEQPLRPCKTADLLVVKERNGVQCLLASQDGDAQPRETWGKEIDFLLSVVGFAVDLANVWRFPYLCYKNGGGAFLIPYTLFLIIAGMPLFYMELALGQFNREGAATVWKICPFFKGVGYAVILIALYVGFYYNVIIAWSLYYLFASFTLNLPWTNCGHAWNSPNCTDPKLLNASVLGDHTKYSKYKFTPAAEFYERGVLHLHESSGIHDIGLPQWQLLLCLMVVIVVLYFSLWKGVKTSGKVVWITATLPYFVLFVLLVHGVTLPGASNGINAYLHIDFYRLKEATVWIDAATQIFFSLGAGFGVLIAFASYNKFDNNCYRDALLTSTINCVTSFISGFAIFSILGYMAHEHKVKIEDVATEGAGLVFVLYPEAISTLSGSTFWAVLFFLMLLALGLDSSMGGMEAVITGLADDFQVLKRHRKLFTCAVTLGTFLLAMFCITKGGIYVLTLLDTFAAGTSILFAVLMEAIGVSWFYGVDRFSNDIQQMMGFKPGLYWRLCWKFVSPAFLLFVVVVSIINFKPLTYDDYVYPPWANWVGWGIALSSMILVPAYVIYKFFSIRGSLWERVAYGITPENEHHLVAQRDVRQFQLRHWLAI

[3] = biological target: T2, dopamine (DA) reuptake in synaptosomes (Rattus norvegicus, UniProt P23977); assay: Inhibition of dopamine (DA) reuptake in synaptosomes; format: biochemical; conditions: 3H-DA, read-out: DA-uptake IC50
T2 construct: in synaptosomes as described in WO 97/16451; from tissue
T2 sequence (P23977 whole entry): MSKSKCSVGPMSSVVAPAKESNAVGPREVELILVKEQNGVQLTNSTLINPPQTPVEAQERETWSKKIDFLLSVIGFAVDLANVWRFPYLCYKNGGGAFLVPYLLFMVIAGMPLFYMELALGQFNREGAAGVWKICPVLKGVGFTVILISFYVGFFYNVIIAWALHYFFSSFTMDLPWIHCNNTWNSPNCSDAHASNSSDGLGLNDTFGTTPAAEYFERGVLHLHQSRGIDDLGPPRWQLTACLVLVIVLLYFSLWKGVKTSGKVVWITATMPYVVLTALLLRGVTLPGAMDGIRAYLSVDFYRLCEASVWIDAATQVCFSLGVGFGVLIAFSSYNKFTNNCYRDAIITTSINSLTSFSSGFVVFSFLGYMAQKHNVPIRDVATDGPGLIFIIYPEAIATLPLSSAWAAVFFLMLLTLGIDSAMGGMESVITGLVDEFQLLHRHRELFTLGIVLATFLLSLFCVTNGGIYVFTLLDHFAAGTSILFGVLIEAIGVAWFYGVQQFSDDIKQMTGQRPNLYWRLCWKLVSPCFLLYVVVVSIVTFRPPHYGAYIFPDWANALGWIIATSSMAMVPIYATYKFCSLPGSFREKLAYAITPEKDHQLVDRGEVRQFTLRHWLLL
Protocol: (§3) Compounds were tested for their ability to inhibit the reuptake of the monoamine neurotransmitters dopamine (DA), noradrenaline (NA), and serotonin (5-HT) in synaptosomes as described in WO 97/16451 (NeuroSearch A/S).
(§4) The test values are given as IC50 (the concentration (μM) of the test substance which inhibits the specific binding of ^3H-DA, ^3H-NA, or ^3H-5-HT by 50%).

[4] = biological target: T2, dopamine (DA) reuptake in synaptosomes; conditions: reported in U.S. Pat. No. 9,133,184 B1; cited from earlier work
depressed FSL rats = assay: Thermographic measurement of genital temperature in female rats; format: in vivo, rat
Protocol: as §1, §2
A thermographic FLIR camera (E96, InfraTec, Germany, FIG. 1) was positioned at 50 cm distance from the area of interest (FIG. 1C). Three areas (thorax, vagina, and urethral-clitoris) of interest were recorded by digital markers positioned using the Research Studio-FLIR, and data were extracted and imported to Excel.

[5] = system: female Sprague Daley rats; assay: Mean arterial pressure and heart rate in anaesthetized female rats; format: in vivo, rat; conditions: infusion 0.3 to 10 mg/kg, versus vehicle
Protocol: Measurements mean arterial pressure and heart rate: The anaesthetized rats breathed spontaneously and body temperature was monitored continuously, and maintained at 37.5° C. by placing them on a heating blanket. A heparinized (100 IE mL-1) polyethylene (PE) catheter (PE-50) connected to a pressure transducer (Disposable BP Transducer, AD Instruments, UK) was introduced into the carotid artery to measure MAP. Following a stabilization period of 10-20 min, continuous direct measurements of mean arterial pressure (MAP) and heart rate (HR) were obtained, registered, and analysed on a computerized data acquisition system (PowerLab, ADInstruments).

[6] = system: Female Sprague Dawley rats; assay: Sexual (paracopulatory) behaviour of estrus-synchronized female rats paired with male rats; format: in vivo, rat
Protocol: Animals: Female Sprague Dawley rats (12-15 weeks old) were housed in the animal facility in Universal Euro Ill type long width cages with standard wood bedding and space for 2 rats with a clean environment, and a comfortable temperature (22-23° C.) with 12:12 h light-dark cycle starting at 11 am and they had free access to food and tap water.
Synchronization of the sexual cycle in estrus of female rats: Female Sprague Dawley rats with an average weight of 250 g were synchronized in the estrus phase of the sexual cycle by injecting with 250 μg prostaglandin F2α (PGF2α) subcutaneously at day 0 and day 3.
To investigate the sexual behavior, the synchronized female rats were paired with trained male rats and behaviour recorded by two cameras. The videos were quantified by a trained operator blinded for the treatments.
Data analysis and statistics: Statistical differences between vehicle, apomorphine and two different doses of IP2015 were analysed using one-way analysis of variance (ANOVA) followed by Tukey post-test. The assumptions of the models were investigated by inspecting Q-Q plots and data were logarithmically transformed when necessary in order to generate a Gaussian-distributed data set. In case where the data were skewed, the Brown-Forsythe test was applied. The ROUT method (Q=1%) was used to exclude data from the analysis. A P<0.05 was considered statistically significant. Post-tests were only done if F was significant and there was no variance inhomogeneity. All statistical analyses were performed using GraphPad Prism 9.5 software (GraphPad Software, CA, USA).

[7] = biological target: T1, noradrenaline (NA) reuptake in synaptosomes; assay: Inhibition of noradrenaline (NA) reuptake in synaptosomes; format: biochemical; conditions: 3H-NA, read-out: NA-uptake IC50
Protocol: as §3, §4

[8] = infusion 0.3 to 10 mg/kg via jugular vein
[9] = infusion 0.3 to 10 mg/kg via jugular vein, laser Doppler
[10] = depressed FSL rats, infusion of increasing doses 0.3-10 mg/Kg, thermography 4x zoom

SMILES | average clitoral blood flow compared to vehicle [1, 8] | peak clitoral blood flow compared to vehicle [1, 8] | duration of blood flow in the clitoral area [1, 9] | frequency of blood flow in the clitoral area [1, 9] | magnitude of blood flow in the clitoral area [1, 9] | Peak clitoral blood flow following infusion ([1]; laser Doppler trace, electrical stimulation of cavernous nerve gave 4.31 V) | IC50 [2] | IC50 [3] | IC50 [4] | temperature in the clitoral area (depressed FSL rats; [10]) | temperature in the vagina (depressed FSL rats; [10]) | core temperature (anal thermometer) (depressed FSL rats; during infusion of IP2015) | heart rate (HR) [5] | mean arterial pressure (MAP) [5] | number of hops compared to apomorphine ([6]; 10 mg/kg) | darts compared with vehicle and apomorphine ([6]; 1 and 10 mg/kg) | ear wiggling ([6]; single injection, 1 and 10 mg/kg) | IC50 [7] | paracopulatory parameters (hops, ear wiggling, darts) ([6]; 0.25 mg/kg)
COc1cc2ccc(O[C@@H]3C[C@H]4CC[C@@H](C3)N4)cc2oc1=O [IP2015, exo-7-[(8-azabicyclo[3.2.1]octan-3-yl)oxy]-3-methoxy-chromen-2-one hydrochloride] | significantly increased | significantly increased | increased | increased | increased | 4.49 V | 3.8 nM | 70 nM | 70 nM | dose-dependent increases | dose-dependent increases | unchanged | significantly increased | comparable to vehicle | increased | dose-dependently increased | did not change | 3.8 nM | 
CN1CCc2cccc3c2[C@H]1Cc1ccc(O)c(O)c1-3 [apomorphine, reference compound] |  |  |  |  |  |  |  |  |  |  |  |  |  |  |  |  |  |  | did not change
